The values below come from PMC7645381, “Development and application of a high-throughput screening assay for identification of small molecule inhibitors of the P. falciparum reticulocyte binding-like homologue 5 protein” (International Journal for Parasitology: Drugs and Drug …, 2020).

The structures appear in SMILES notation. Read-outs that look alike come from different tables or passages of the source.

In data set [1] the test system is P. falciparum 3D7 parasites. Put plainly: P. falciparum parasite viability assay (LDH). In kind it is cell-based. The settings on record: LDH activity, 10-point dilution series, 72 h, read-out: P. falciparum 3D7 EC50. As for the experimental part: A modified version of the lactate dehydrogenase (LDH) assay described by [Gamo et al. […] Compounds were pre-dispensed in 384-well plates, RPMI/Albumax growth media was added, and P. falciparum inoculated. Plates were incubated for 72 h and then frozen at −80 °C overnight. LDH activity was quantified with the modified cofactor 3-acetylpyridine adenine dinucleotide (APAD) (Sigma Aldrich) by measuring absorbance of the tetrazolium indicator nitro blue tetrazolium (NBT) (Sigma Aldrich) at 650 nm. Parasite conditions: […] Growth inhibition assay: […] Intermediate compound dilution plates were prepared by dispensing 5 μL from each well of the compound master plate into 11.5 μL of RPMI/Albumax growth media. Duplicate assay plates (384-well) were then prepared by dispensing 0.5 μL of compound from the intermediate dilution plates into 9.5 μL of RPMI/Albumax growth media. […] The final DMSO concentration was 0.1% (to limit toxicity to parasites). […] Evaluation of parasite growth measuring lactate dehydrogenase (LDH) activity: After 72 h of incubation, plates were frozen at −80 °C overnight and then thawed at room temperature for at least 4 h. […] Plates were shaken to ensure mixing and absorbance at 650 nm was monitored using a PerkinElmer Envision plate reader after 30 min of incubation at room temperature. Data were normalised to percent growth inhibition using positive and negative controls and analyzed using TIBCO Spotfire software.

Data set [2] concerns HepG2 cells. Put plainly: HepG2 growth inhibition assay. In kind it is cell-based. The conditions noted are these: Homo sapiens, 10-point dilution series, 48 h, Cell Titre-Glo. As for the experimental part: HepG2 cells were cultured in Dulbeccos modified eagle's medium (DMEM) supplemented with 10% fetal calf serum (FCS), in a humidified incubator at 37 °C and 5% CO2. Ten-point compound titration assays were performed by treating cells (1 × 10^3) for 48 h in 384 well tissue culture treated plates (Greiner). Cytotoxicity was determined using Cell Titer Glo (Promega) and calculated as a percentage using DMSO as a positive growth control and 10 μM Bortezomib as a negative growth control. EC50 values were calculated using a 4-parameter log dose, non-linear regression analysis, with sigmoidal dose response (variable slope) curve fit using Graph Pad Prism (version 6.05). 0 and 100 constraint parameters were used for curve fitting. […]

A short description of data set [3]: Solubility in SPR running buffer. In kind it is physicochemical.
Data set [4] addresses T1, P. falciparum Rh5 (Rh5 – basigin interaction) (Plasmodium falciparum, UniProt Q8IFM5). Put plainly: biochemical. Also on record: AlphaScreen of Rh5 - His-tagged basigin interaction with anti-Rh5 mAb beads; inhibition of luminescence signal. The conditions noted are these: Batch Reference=01; primary pilot screen, single point. As to the method:
Using the Combi-multidrop, 5 μL of Rh5 stock solution (200 nM prepared in assay buffer) was added to columns 1–24 of the 384-well assay plate (Greiner 384-well white, low binding plate, #784904, Bioone). The PerkinElmer Janus automated dispensing system was then employed to transfer, via the pin-tool, 2 × 100 nL of the compound stock DMSO solution from the compound master plate to the assay plate. The plate was sealed and incubated for 30 min at room temperature. Using a Combi-multidrop, 5 μL of hexa-histidine tagged basigin stock solution (80 nM prepared in assay buffer) was then added to columns 1–23 and 5 μL assay buffer to column 24 of the 384-well assay plate. The plate was sealed again and incubated for 30 min at room temperature. A solution of AlphaScreen donor and acceptor beads (20 μg/mL prepared in assay buffer) plus anti-Rh5 mAb solution (2 μg/mL prepared in assay buffer) was prepared in assay buffer under subdued lighting. Using the Combi-multidrop, 10 μL of this solution was added to every well of the assay plate under subdued lighting. The plate was sealed with foil (plate max) and incubated at room temperature for 1 h. The assay plate was then analysed on the PerkinElmer Envision 2103 Multilabel Plate Reader (Ex 680, Em 520–620 nm). The optimised Rh5 AlphaScreen assay was then validated for HT screening purposes by conducting a pilot screen using known drug library (from Prestwick, Tocris and LOPAC) and the MMV Malaria Box, comprising 3708 and 400 compounds (Fig. 1), respectively. Historically, PPIs are notoriously difficult to target with small molecules. To enhance the likelihood of identifying an inhibitor of the Rh5 - basigin interaction the primary screen was conducted at a compound concentration of 20 μM. A 20 μM screening concentration is considered high, when compared to the commonly used primary screen concentrations of approximately 1–10 μM. To follow-up on hit compounds from the pilot validation screen, we next wanted to confirm the activity of the primary hits. To do this, a two-phase hit confirmation and counterscreen process was undertaken (Fig. 1). In the first phase, the 231 primary hits from both libraries were evaluated in the Rh5 AlphaScreen assay and counterscreen assay. Both assays were undertaken at 10 μM in duplicate. The counterscreen assay was conducted using AlphaScreen TruHits. […] The 45 secondary hits can be viewed in the top left quadrant of Fig. S8. Of the 45 hits, 13 compounds originated from the Malaria Box and 32 compounds from the known drug library.

The target in data set [5] is T1, P. falciparum Rh5 (Rh5 – basigin interaction). Put plainly: biochemical. Also on record: AlphaScreen of Rh5 - His-tagged basigin interaction with anti-Rh5 mAb beads; inhibition of luminescence signal. The settings on record: Batch Reference=01; confirmation screen, duplicate. As to the method: Using the Combi-multidrop, 5 μL of Rh5 stock solution (200 nM prepared in assay buffer) was added to columns 1–24 of the 384-well assay plate (Greiner 384-well white, low binding plate, #784904, Bioone). The PerkinElmer Janus automated dispensing system was then employed to transfer, via the pin-tool, 2 × 100 nL of the compound stock DMSO solution from the compound master plate to the assay plate. The plate was sealed and incubated for 30 min at room temperature. Using a Combi-multidrop, 5 μL of hexa-histidine tagged basigin stock solution (80 nM prepared in assay buffer) was then added to columns 1–23 and 5 μL assay buffer to column 24 of the 384-well assay plate. The plate was sealed again and incubated for 30 min at room temperature. A solution of AlphaScreen donor and acceptor beads (20 μg/mL prepared in assay buffer) plus anti-Rh5 mAb solution (2 μg/mL prepared in assay buffer) was prepared in assay buffer under subdued lighting. Using the Combi-multidrop, 10 μL of this solution was added to every well of the assay plate under subdued lighting. The plate was sealed with foil (plate max) and incubated at room temperature for 1 h. The assay plate was then analysed on the PerkinElmer Envision 2103 Multilabel Plate Reader (Ex 680, Em 520–620 nm). […] Historically, PPIs are notoriously difficult to target with small molecules. To enhance the likelihood of identifying an inhibitor of the Rh5 - basigin interaction the primary screen was conducted at a compound concentration of 20 μM. A 20 μM screening concentration is considered high, when compared to the commonly used primary screen concentrations of approximately 1–10 μM. […] To do this, a two-phase hit confirmation and counterscreen process was undertaken (Fig. 1). […] Both assays were undertaken at 10 μM in duplicate. The counterscreen assay was conducted using AlphaScreen TruHits.

T1 sequence (Q8IFM5 24-526): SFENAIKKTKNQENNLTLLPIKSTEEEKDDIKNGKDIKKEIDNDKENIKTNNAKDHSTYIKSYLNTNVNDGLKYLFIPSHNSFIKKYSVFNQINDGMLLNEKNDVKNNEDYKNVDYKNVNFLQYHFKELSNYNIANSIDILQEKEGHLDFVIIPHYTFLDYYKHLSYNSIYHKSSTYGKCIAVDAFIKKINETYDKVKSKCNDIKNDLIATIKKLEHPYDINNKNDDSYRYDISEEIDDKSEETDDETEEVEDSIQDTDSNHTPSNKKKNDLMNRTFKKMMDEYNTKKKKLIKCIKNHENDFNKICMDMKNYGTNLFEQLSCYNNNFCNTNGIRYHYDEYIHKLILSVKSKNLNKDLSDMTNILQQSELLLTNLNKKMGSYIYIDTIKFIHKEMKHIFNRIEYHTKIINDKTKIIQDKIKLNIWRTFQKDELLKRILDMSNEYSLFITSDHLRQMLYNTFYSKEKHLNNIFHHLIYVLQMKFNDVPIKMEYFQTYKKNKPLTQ

A word on the EC50: it is the concentration giving half of the maximal effect. Usually inhibition stands for the change of the read-out against control, counted positive when it falls. As to `O=C(Nc1cccc2c(=O)cc(-c3nnn[nH]3)oc12)c1ccc(OCCCCc2ccccc2)cc1` [pranlukast], the half-maximal effective concentration (EC50) in data set [1] was 40 µM; in data set [1] (Plasmodium falciparum, 3D7, 72 h) it was 39 µM; in data set [2], greater than 50 µM. In data set [3], the “solubility in the SPR running buffer” value is on record as “limited solubility”. The inhibition at 20 µM in data set [4] was 75.4%. This molecule also had an inhibition at 10 µM in data set [5] of 69%.
